According to patent US20060269613A1, “Composition containing nanoparticles containing water-soluble basic drug encpsulated therein” (priority 2003, published 2006):

Assay: Ratio of lactone ring-closed TPT over time in 50% human plasma at 37° C. (HPLC)
Assay type: in vitro ADME
Conditions: 50% human plasma diluted with PBS
Method: Fifty μL of TPT-containing PLA particle formulation or 50 μL of aqueous TPT solution (0.3 mg/mL) containing 50 mg/mL of PEG-4000 and 50 mg/mL of mannitol was freeze-dried. This freeze-dried product (control) and the above-mentioned nanoparticles were each dissolved in 1 mL of 50% human plasma (diluted with PBS), and were incubated at 37° C. For the purpose of investigating the ratio of ring-opening of lactone ring of TPT with lapse of time, 100 μL was taken out from the incubated sample after 0 hour, 2 hours and 4 hours, and was added to 900 μL of methanol. Plasma protein was denatured while the equilibrium of TPT structure was maintained, and, then, the samples were centrifuged at 10000 rpm for 10 minutes so that protein components were precipitated, and, then, the concentration of lactone ring-opened TPT and that of lactone ring-closed TPT in supernatant were measured with HPLC. An aqueous solution of TPT (pH 3; phosphate*hydro-chloride buffer) was used for control.
(§1) Fifty μL of TPT-containing nanoparticle formulation or a 50 μL of aqueous TPT solution (0.3 mg/mL) containing 50 mg/mL of PEG-4000 and 50 mg/mL of mannitol was freeze-dried, and was dissolved in 1 mL of 50% human plasma (diluted with PBS), and were incubated at 37° C. For the purpose of investigating the ratio of ring-opening and ring-closing of lactone ring of TPT with lapse of time, 100 μL of incubated sample was taken out after 0 hour, 2 hours and 4 hours, and was added to 900 μL of methanol. Plasma protein was denatured while the equilibrium of TPT structure was maintained, and, then, the sample was centrifuged at 10000 rpm for 10 minutes so that protein components were precipitated, and, then, the concentration of lactone ring-opened TPT and that of lactone ring-closed TPT in supernatant were measured with HPLC. An aqueous solution of TPT (pH 3; phosphate*hydrochloride buffer) was used for control.
as §1, with “TPT-containing micellar” for “TPT-containing”, “or” for “or a”, “ring-closing” for “ring-closing of lactone ring”, “HPLC.” for “HPLC. An aqueous solution of TPT (pH 3; phosphate*hydrochloride buffer) was used for control.”
as §1, with “nanocapsule particle” for “nanoparticle”, “its freeze-dried product” for “a 50 μL of aqueous TPT solution (0.3 mg/mL) containing 50 mg/mL of PEG-4000 and 50 mg/mL of mannitol was freeze-dried, and”, “ring-closing” for “ring-closing of lactone ring”, “HPLC.” for “HPLC. An aqueous solution of TPT (pH 3; phosphate*hydrochloride buffer) was used for control.”

## CC[C@@]1(O)C(=O)OCc2c1cc1n(c2=O)Cc2cc3c(CN(C)C)c(O)ccc3nc2-1 [Control]
Table 1 (Example 1)
  ratio of ring-closed TPT in 50% human plasma, 0 Hour: 97.5%
  ratio of ring-closed TPT in 50% human plasma, 2 Hours: 24.6%
  ratio of ring-closed TPT in 50% human plasma, 4 Hours: 19.4%
Table 2 (Example 2)
  ratio of ring-closed TPT in 50% human plasma, 0 Hour: 98.8%
  ratio of ring-closed TPT in 50% human plasma, 2 Hours: 20.8%
  ratio of ring-closed TPT in 50% human plasma, 4 Hours: 13.4%
Table 3 (Example 3)
  ratio of ring-closed TPT in 50% human plasma, 0 Hour: 98.9%
  ratio of ring-closed TPT in 50% human plasma, 2 Hours: 18.6%
  ratio of ring-closed TPT in 50% human plasma, 4 Hours: 14.6%
Table 4 (Example 5)
  ratio of ring-closed TPT in 50% human plasma, 0 Hour: 98.2%
  ratio of ring-closed TPT in 50% human plasma, 2 Hours: 14.4%
  ratio of ring-closed TPT in 50% human plasma, 4 Hours: 11.9%
